# Values of other authors as cited in patent publication US20240423961A1, “1H-1,2,3-TRIAZOLE-4-CARBOXYLIC ACIDS FOR TREATMENT OF HYPEROXALURIA AND KIDNEY STONES” (CANTERO THERAPEUTICS, INC., priority 2021, published 2024).
# “And” between values parts separate entries of the source, which are not always exact repeats. Identical values can stand only once. Like-named read-outs stand apart in the source and are kept apart here.
# System: glycolate oxidase (GO)
# Settings: cited from earlier work
substance,measurement,setting,value
lumasiran,measured peak plasma glycolate relative to baseline levels,single subcutaneous dose 0.3 mg/kg,~1.6 fold
same,measured peak plasma glycolate relative to baseline levels,single subcutaneous dose 1.0 mg/kg,~2.5 fold
same,measured peak plasma glycolate relative to baseline levels,"single subcutaneous dose 3.0 mg/kg, 3 mg/kg",~3.1 fold and ~3 fold
same,measured peak plasma glycolate relative to baseline levels,single subcutaneous dose 6.0 mg/kg,~7.3 fold
